# Test system: New Zealand (albino) rabbits
# Assay: Tear secretion in albino rabbits after topical instillation (Schirmer strips)
# Assay type: in vivo
# Conditions: for Tear secretion % Mean (% of baseline) / Tear secretion (mm) Mean: 1×50 microliters, right eye
# Procedure: New Zealand (albino) rabbits were the experimental model used to test the action of duramycin. Four animals were involved for each formulation: Duramycin was used in a formulation at 0.5 mg/ml dissolved in saline (0.9% sodium chloride) at pH between 6 and 7 and was compared with 0.9% sodium chloride and with 0.9% sodium chloride at pH between 6 and 7 (vehicle). Animals were randomly allocated into 3 groups of 4 animals each by a computer controlled program.
# Aliquots (1×50 microliters) were administered using a micropipette into the right eyes while the left eyes remained untreated. Sampling was performed in the right eyes for a constant interval of 15 seconds before the instillation and at 15, 30, 60, 120, and 180 minutes after instillation. Tear secretion was collected and measured on treated eyes using Schimer strips.
# Tear secretion, measured as the tear migration onto Schirmer strips for 15 seconds, was expressed in millimeters (mm) and in percents (%) of baseline values. The % of baseline values was the mean of individual %. T max is the time when the maximum mean value is obtained and is expressed in minutes (min).
# Mean AUC0-180 min value (area under the curve from baseline to 180 min) is the mean of individual AUC0-180 min values calculated using the trapezoidal rule and is expressed in mm×min and in %×min.
# [1] = 15 min after instillation, 0.5 mg/ml
# [2] = 30 min after instillation, 0.5 mg/ml
# [3] = 60 min after instillation, 0.5 mg/ml
# [4] = 120 min after instillation, 0.5 mg/ml
# [5] = 180 min after instillation, 0.5 mg/ml
# [6] = baseline to 180 min, trapezoidal rule, mean of individual values, 0.5 mg/ml
substance,measurement,setting,value
duramycin,Tear secretion % Mean (% of baseline),"0 min (before instillation, baseline), 0.5 mg/ml",100.0%
same,Tear secretion (mm) Mean,"0 min (before instillation, baseline), 0.5 mg/ml, Schirmer strip 15 seconds",2.8 mm
same,"Increase of tear secretion compared with saline, based on AUC0-180 min in %",0.5 mg/ml vs saline treatment,3.56 times
same,"Increase of tear secretion compared with saline, based on AUC0-180 min in mm",0.5 mg/ml vs saline treatment,1.92 times
same,"Increase of tear secretion compared with saline, based on maximum value in %",0.5 mg/ml vs saline treatment,4.59 times
same,"Increase of tear secretion compared with saline, based on maximum value in mm",0.5 mg/ml vs saline treatment,2.47 times
same,Tear secretion % Mean (% of baseline),[1],329.2%
same,Tear secretion (mm) Mean,[1],6.0 mm
same,Tear secretion % Mean (% of baseline),[2],459.4%
same,Tear secretion (mm) Mean,[2],9.4 mm
same,Tear secretion % Mean (% of baseline),[3],260.4%
same,Tear secretion (mm) Mean,[3],4.8 mm
same,Tear secretion % Mean (% of baseline),[4],157.3%
same,Tear secretion (mm) Mean,[4],3.5 mm
same,Tear secretion % Mean (% of baseline),[5],245.8%
same,Tear secretion (mm) Mean,[5],4.9 mm
same,Tmax (time when the maximum mean tear secretion is obtained),"after instillation, 0.5 mg/ml",30 min
same,AUC 0-180 of tear secretion,[6],891.6 mm × min
same,AUC 0-180 of tear secretion (% of baseline),[6],44554.7 % × min
